# Peptide text beside a SMILES is read from it.
# Experiments:
# [1] = test system: pain threshold (tail-flick latency); experiment: rat-tail flick method, intracerebroventricular injection; assay type: in vivo; settings: for Mean Latency ± SEM, Drug / Mean % Change ± SEM: injected into lateral ventricle; for Mean Latency ± SEM, Drug / Mean % Change ± SEM / analgesic effect / pain threshold: rat; for Mean % Change ± SEM: drug minus baseline latency; for analgesic effect / pain threshold: injected into the lateral brain ventricle
# Protocol: In this test method, which is a standard test for analgesia, a light beam is focused on the tip of the rat's tail, and the pain threshold of the animal is measured by the latency of the rat to remove his tail from the noxious heat source. When tested by the rat-tail flick method by intracerebroventricular injection, according to the procedure of Belluzzi et al., Nature, 260, 625 (1976), the polypeptides of this invention produced the effects set forth in Table I.
# *All drugs were dissolved in […]. of Ringer's solution and injected int
# the lateral ventricle through permanently-indwelling cannulae.
# [2] = test system: analgesia; settings: injection in the brain ventricle in rats; fully reversible by naloxone; cited from earlier work
# [3] = test system: opiate receptors; experiment: binding to opiate receptors in vitro, displacement of 3H-naloxone in rat brain homogenates
Compound,"Mean Latency ± SEM, Drug ([1]; dose 100 μg)",Mean % Change ± SEM ([1]; dose 100 μg) [%],analgesia [2],"Mean Latency ± SEM, Drug ([1]; dose 10 μg)",Mean % Change ± SEM ([1]; dose 10 μg) [%],"Mean Latency ± SEM, Drug ([1]; dose 200 μg)",Mean % Change ± SEM ([1]; dose 200 μg) [%],analgesic activity at low dose ([1]; dose as low as 10 μg),duration of analgesic effect ([1]; dose as low as 10 μg) [h],analgesic effect / pain threshold ([1]; listed as polypeptide of Formula I),analgesic effect / pain threshold ([1]; listed as polypeptide of this invention),binding to opiate receptors in vitro ([3]; in vitro),displacing 3H-naloxone from binding sites ([3]; rat brain homogenates)
"CC(C)C[C@H](NC(=O)[C@H](Cc1ccccc1)NC(=O)CNC(=O)CNC(=O)[C@@H](N)Cc1ccc(O)cc1)C(=O)O [Leucine-Enkephalin, H-Tyr-Gly-Gly-Phe-Leu-OH, reference compound]",5.11 ± 0.34,31.7 ± 11.5,induce a profound analgesia,,,,,,,,,,
"CSCC[C@H](NC(=O)[C@H](Cc1ccccc1)NC(=O)CNC(=O)CNC(=O)[C@@H](N)Cc1ccc(O)cc1)C(=O)O [Methionine-Enkaphalin, H-Tyr-Gly-Gly-Phe-Met-OH]",,,induce a profound analgesia,,,,,,,,,,
"CC(C)C[C@H](NC(=O)[C@H](Cc1ccccc1)NC(=O)CNC(=O)CNC(=O)[C@@H](N)Cc1ccc(O)cc1)C(=O)N[C@H](C(=O)N[C@@H](CO)C(=O)N[C@@H](CCC(=O)O)C(=O)N[C@@H](CCCCN)C(=O)N[C@@H](CO)C(=O)N[C@@H](CCC(N)=O)C(=O)N[C@H](C(=O)N1CCC[C@H]1C(=O)N[C@@H](CC(C)C)C(=O)N[C@H](C(=O)N[C@H](C(=O)O)[C@@H](C)O)C(C)C)[C@@H](C)O)[C@@H](C)O [β-LPH 61-76 (Leu^65), L-Tyrosyl-glycyl-glycyl-L-phenylalanyl-L-leucyl-L-threonyl-L-seryl-L-glutamyl-L-lysyl-L-seryl-L-glutaminyl-L-threonyl-L-prolyl-L-leucyl-L-valyl-L-threonine] (H-YGGFLTSEKSQTPLVT-OH)",6.26 ± 0.96,86.02 ± 30.79,,4.33 ± 0.05,34.32 ± 8.75,4.16,3.04,active,> 2,exerts an analgesic effect,produced an increase in pain threshold,weak binding,capable of displacing 3H-naloxone
